Source: the AptaBench aptamer set (doi:10.1093/nar/gkaf219)

Legend:
Conditions in all cases: 10 mM Tris-HCl, pH 7.4
[1] = test system: DNA aptamer or structured DNA CTTACGACATGGGATGTGTAGTTAGTGGTCGGATCCGGGTCGTAAG
[2] = test system: DNA aptamer or structured DNA CTTACGACTTTTGGGTGTCTGGGTGGGAGGTCGTAAG
[3] = test system: DNA aptamer or structured DNA CTTACGACACAGGGGGGGGCTAGGGTGCGCGGGAGCTGGTCGTAAG
[4] = test system: DNA aptamer or structured DNA CTTACGACAATGGGGCAGTTCTAGTTGGGGTTTATATTGTCGTAAG
[5] = test system: DNA aptamer or structured DNA CTTACGACTTTGGTTTCCTCGATTCGCATGGGTGGTAAGTCGTAAG
[6] = test system: DNA aptamer or structured DNA CTTACGACTAGGCGGGGGTCGGCCACCGAGGTGGGGTAGTCGTAAG
[7] = test system: DNA aptamer or structured DNA CTTACGACTCAGGGGGAGGCTAGGGTGCGCGGAAGCTGGTCGTAAG
[8] = test system: DNA aptamer or structured DNA CTTACGACTACGGTTGGTTCAGGGGGTAGGTGCTTTGGGTCGTAAG
[9] = test system: DNA aptamer or structured DNA CTTACGACGTGTGCTGTTGGTTCTAGGGTAGGATGGCGTCGTAAG
[10] = test system: DNA aptamer or structured DNA CTTACGACACATTTGGGTATTCTGGGTGAGCTGTGTCGTAAG
[11] = test system: DNA aptamer or structured DNA CTTACGACGTGTGCTGTTGGTTCTAGGGGTAGGATGGCGTCGTAAG
[12] = test system: DNA aptamer or structured DNA CTTACGACATGGGATGTGTAGTTAGTGGTCGGATCCGAGTCGTAAG
[13] = test system: DNA aptamer or structured DNA CTTACGACCTGTTCTGAGGGTCAACCTTTGGTGTAGTGGTCGTAAG
[14] = test system: DNA aptamer or structured DNA CTTACGACTAGGTGTGGGTCGGCTTTTTTTTAAGGGTAGTCGTAAG
[15] = test system: DNA aptamer or structured DNA CTTACGACACAGGGCGTGGAGGAGCTGGGCTATTAGGGGTCGTAAG
[16] = test system: DNA aptamer or structured DNA CTTACGACTAGGTGTGGGTCGGCTGCTTTCGCAGGGTAGTCGTAAG
[17] = test system: DNA aptamer or structured DNA CTTACGACGGGTGCCGTTGGTTCTAGGGTTAGGATGGCGTCGTAAG
[18] = test system: DNA aptamer or structured DNA GGGACGACGAGGGGATCCATCCAATGGGGTTTGTATACGTCGTCCC
[19] = test system: DNA aptamer or structured DNA TTCAAATCTGAGCAGCCTAGTTACTGACGGGTTTATAGTACTCACATTGAGTCTAGATTTGAA
[20] = test system: DNA aptamer or structured DNA GGGACGACGGAGGTGTAGGGTTTAGGTAGTGGTTTGAAGTCGTCCC
[21] = test system: DNA aptamer or structured DNA GGGACGACTAGGGCTTAGGGTTTAGGTGTGGGGTGTAAGTCGTCCC
[22] = test system: DNA aptamer or structured DNA GGGACGACCTAGGGCTTGGGTTTAGGTGTGGGGTGTTGGGTCGTCCC
[23] = test system: DNA aptamer or structured DNA TTCAAATCTGAGCAGCCTAGTTACTGACGGGTTTATAGTACTCGCATCGAGTCTAGATTTGAA
[24] = test system: DNA aptamer or structured DNA GGGACGACGGGACGGTAAGTGGCAGGTCGTTGGAATTTCTACTGTATCGTCGTCCC
[25] = test system: DNA aptamer or structured DNA TTCAAATCTGAGCAGCCTAGTTACTGACGGGTTTATAGTACTCGCACTGAGTCTAGATTTGAA
[26] = test system: DNA aptamer or structured DNA TTCAAATCTGGCGCAGGTAGGGGTGTAGGTGTGGGGGTAAGTCTAGATTTGAA
[27] = test system: DNA aptamer or structured DNA TTCAAATCTTGGTACGTTCTGCCTTTTCTTATTTTGCTTTGGGTTACCTAGTCTAGATTTGAA
[28] = test system: DNA aptamer or structured DNA TTCAAATCTGGTGCCCTTTCGCAGTCGGTTGGTAATGAGATCACTTTAGAGTCTAGATTTGAA
[29] = test system: DNA aptamer or structured DNA GGGACGACGGTTGGCTTGGGGTCGGGTGTGGGTGCGGCGTCGTCCC
[30] = test system: DNA aptamer or structured DNA GGGACGACAGCTTGGCTTGGTCGGGGTAGGGTTCGGATGTCGTCCC
[31] = test system: DNA aptamer or structured DNA GGGACGACGGTTGGCTTGGGTCGGGTGTGGGTGCGGCGTCGTCCC
[32] = test system: DNA aptamer or structured DNA CTTACGACGGAGGTTGGGAAGGAGGGGGAGGCCGGAGAGTCGTAAG
[33] = test system: DNA aptamer or structured DNA CTTACGACCAGGCTACGTGGGGGAGGGTGGGAAGACGGGTCGTAAG
[34] = test system: DNA aptamer or structured DNA CTTACGACGGGGTGGGGGCGGCTTCCCATGGGAGGGGTGTCGTAAG
[35] = test system: DNA aptamer or structured DNA CTTACGACAGGGGTACCCGCGTATAACGTGGCGTTCGTGTCGTAAG
For binding call in this document: call rule not given here.

In the case of `CN1C2CCC1[C@@H](C(=O)O)[C@@H](OC(=O)c1ccccc1)C2` (stereo partly specified), the binding call [1] is reported as “no binding”, the binding call [2] is reported as “binds” and the binding call [3] is reported as “no binding”. For the same molecule, the binding call [4] was “no binding”, the binding call [5] was “no binding” and the binding call [6] was “no binding”. For the same molecule, the binding call [7] was “no binding”, the binding call [8] was “binds” and the binding call [9] was “binds”. For the same molecule, the binding call [10] was “no binding”, the binding call [11] was “no binding” and the binding call [12] was “no binding”. The binding call [13] was “no binding”, the binding call [14] was “no binding” and the binding call [15] was “binds”. For the same molecule, the binding call [16] was “no binding” and the binding call [17] was “binds”.
`NCCc1c[nH]c2ccc(O)cc12` was tested, and the binding call [1] was “no binding”, the binding call [2] was “no binding” and the binding call [18] was “binds”. The binding call [3] was “no binding”, the binding call [19] was “no binding” and the binding call [4] was “no binding”. For the same molecule, the binding call [20] was “no binding”, the binding call [5] was “no binding” and the binding call [21] was “no binding”. The binding call [6] was “no binding”, the binding call [22] was “no binding” and the binding call [7] was “no binding”. The binding call [8] was “binds”, the binding call [9] was “binds” and the binding call [23] was “no binding”. The binding call [24] was “binds”, the binding call [10] was “no binding” and the binding call [11] was “binds”. For the same molecule, the binding call [12] was “no binding”, the binding call [25] was “no binding” and the binding call [26] was “no binding”. The binding call [13] was “no binding”, the binding call [27] was “no binding” and the binding call [14] was “no binding”. For the same molecule, the binding call [15] was “no binding”, the binding call [16] was “no binding” and the binding call [17] was “binds”. For the same molecule, the binding call [28] was “no binding”.
For `CC(N)Cc1ccccc1` (stereo unspecified), the binding call [1] was “no binding”, the binding call [2] was “no binding” and the binding call [18] was “binds”. For the same molecule, the binding call [29] was “no binding”, the binding call [19] was “no binding” and the binding call [4] was “no binding”. The binding call [20] was “no binding”, the binding call [30] was “no binding” and the binding call [21] was “no binding”. The binding call [22] was “no binding”, the binding call [9] was “no binding” and the binding call [23] was “no binding”. The binding call [24] was “binds”, the binding call [10] was “no binding” and the binding call [25] was “no binding”. For the same molecule, the binding call [26] was “no binding”, the binding call [31] was “no binding” and the binding call [27] was “no binding”. For the same molecule, the binding call [16] was “no binding”, the binding call [17] was “no binding” and the binding call [28] was “binds”.
`COC(=O)[C@@H]1C2CCC(C[C@@H]1OC(=O)c1ccccc1)N2C` (stereo partly specified) was tested, and the Kd [1] was 127 nM, the binding call [32] was “no binding” and the binding call [33] was “no binding”. The Kd [2] was 67 nM, the binding call [18] was “binds” and the Kd [3] was 282 nM. For the same molecule, the binding call [29] was “binds”, the binding call [19] was “no binding” and the Kd [4] was 345 nM. For the same molecule, the binding call [20] was “binds”, the Kd [5] was 239 nM and the binding call [21] was “no binding”. For the same molecule, the Kd [6] was 315 nM, the binding call [22] was “binds” and the Kd [7] was 245 nM. For the same molecule, the Kd [8] was 198 nM, the Kd [9] was 93 nM and the binding call [34] was “no binding”. For the same molecule, the binding call [24] was “no binding”, the Kd [10] was 602 nM and the binding call [35] was “no binding”. The Kd [11] was 235 nM, the binding call [25] was “no binding” and the binding call [26] was “no binding”. The Kd [13] was 216 nM, the binding call [31] was “no binding” and the binding call [27] was “no binding”. It also gave a Kd [14] of 352 nM, a Kd [15] of 1190 nM and a Kd [16] of 350 nM. The Kd [17] was 313 nM.
In the case of `NCCc1ccc(O)c(O)c1`, the binding call [1] is reported as “no binding”, the binding call [2] is reported as “no binding” and the binding call [18] is reported as “binds”. The binding call [3] was “no binding”, the binding call [19] was “no binding” and the binding call [4] was “binds”. For the same molecule, the binding call [5] was “no binding”, the binding call [6] was “no binding” and the binding call [7] was “no binding”. For the same molecule, the binding call [8] was “binds”, the binding call [9] was “binds” and the binding call [23] was “binds”. For the same molecule, the binding call [24] was “binds”, the binding call [10] was “binds” and the binding call [11] was “binds”. For the same molecule, the binding call [12] was “binds”, the binding call [25] was “no binding” and the binding call [13] was “no binding”. For the same molecule, the binding call [27] was “no binding”, the binding call [14] was “no binding” and the binding call [15] was “no binding”. The binding call [16] was “no binding”, the binding call [17] was “binds” and the binding call [28] was “no binding”.
